Here are results for 65 compounds from BindingDB's records for doi:10.7270/Q2TX3CTT (Broad Institute, 2010).

Where a name gives a salt, the structure may show the parent alone. Where only a bound is given, the exact number is not on record here.

As usually defined, the EC50 is the concentration at which the effect is half-maximal. Low values mean a more potent agent, high ones a less potent agent.

For the assay, the target named is Glycogen synthase kinase-3 beta (Homo sapiens, UniProt P49841). Briefly: GSK3beta kinase inhibitor potency, dose response, biochemical, luminescence, cell-free homogeneous, retest (AID 434954).
Chain of Glycogen synthase kinase-3 beta (P49841 whole entry): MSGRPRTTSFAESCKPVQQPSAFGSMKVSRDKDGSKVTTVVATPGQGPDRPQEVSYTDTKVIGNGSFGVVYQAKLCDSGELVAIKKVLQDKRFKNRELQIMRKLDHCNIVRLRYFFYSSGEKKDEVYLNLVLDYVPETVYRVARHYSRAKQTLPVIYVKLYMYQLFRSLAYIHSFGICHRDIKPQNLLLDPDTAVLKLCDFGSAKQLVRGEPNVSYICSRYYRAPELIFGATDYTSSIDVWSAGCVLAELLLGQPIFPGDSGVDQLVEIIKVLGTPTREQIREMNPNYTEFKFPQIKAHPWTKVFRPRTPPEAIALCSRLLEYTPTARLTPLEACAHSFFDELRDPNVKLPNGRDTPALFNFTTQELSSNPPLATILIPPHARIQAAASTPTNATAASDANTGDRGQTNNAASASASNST
For the compound `Cc1c(C(=O)O)sc2ncnc(N3CCCCC3C)c12` (stereo not given) [5-methyl-4-(2-methyl-1-piperidinyl)thieno[2,3-d]pyrimidine-6-carboxylic acid], the concentration giving a half-maximal response (EC50) is over 300 µM.
With `CSc1nc(NCCCO)c2c3c(sc2n1)CN(C)CC3` the figure was 29.8 µM; with `CCC(Sc1ccc2nnc(-c3ccc(F)cc3)n2n1)C(=O)OC` (stereo not given) [MLS000093330], 20.1 µM; with `O=C(Cn1c2ccccc2c(=O)c2ccccc21)Nc1ccccc1F` [N-(2-fluorophenyl)-2-(9-oxoacridin-10-yl)acetamide], over 300 µM.
The figure for `CCn1c(-c2nn(C)cc2Cl)n[nH]c1=S` [MLS000703969] is over 300 µM.
`O=C(NC(=S)Nc1cccc2c(O)cccc12)c1ccco1` [N-[(5-hydroxynaphthalen-1-yl)carbamothioyl]furan-2-carboxamide] returned an EC50 of 83.9 µM.
In turn, `Nc1nc(Nc2ccccc2)nc(NCc2ccco2)c1[N+](=O)[O-]` [4-N-(furan-2-ylmethyl)-5-nitro-2-N-phenylpyrimidine-2,4,6-triamine] displayed an EC50 of 4.89 µM.
For `Cc1cc(C)c2nc(N(CCN(C)C)C(=O)c3ccc(S(=O)(=O)N(C)CC4CCCO4)cc3)sc2c1` (stereo not given) [MLS001239556], the EC50 was over 300 µM.
With `CCN1CCN(C(=O)c2cc3cc4cc(OC)ccc4nc3s2)CC1` [MLS000091315] the figure was over 300 µM; with `CCOc1cc(C2Nc3ccccc3N=C3CC(C)(C)CC(=O)C32)ccc1O` (stereo not given) [6-(3-ethoxy-4-hydroxyphenyl)-9,9-dimethyl-6,8,10,11-tetrahydro-5H-benzo[b][1,4]benzodiazepin-7-one], over 300 µM.
With `CCC(Sc1ccc2nnc(-c3ccc(F)cc3)n2n1)C(=O)O` (stereo not given) [2-[[3-(4-fluorophenyl)-[1,2,4]triazolo[4,3-b]pyridazin-6-yl]thio]butanoic acid] the figure was 29.5 µM.
With `Cn1c(=O)c2[nH]c(CN(Cc3ccccc3)Cc3ccccc3)nc2n(C)c1=O` [MLS000081398] the figure was over 300 µM; with `O=C1CCCC2=Nc3ccccc3NC(c3cccs3)C12` (stereo not given) [6-thiophen-2-yl-5,6,8,9,10,11-hexahydrobenzo[b][1,4]benzodiazepin-7-one], over 300 µM; with `O=C(COc1ccccc1[N+](=O)[O-])NN=C/C=C/c1ccco1` [N-[[(E)-3-(furan-2-yl)prop-2-enylidene]amino]-2-(2-nitrophenoxy)acetamide], over 300 µM.
In turn, `N#Cc1c(Nc2ccccc2)sc(C(=O)c2ccccc2)c1N` [4-azanyl-2-phenylazanyl-5-(phenylcarbonyl)thiophene-3-carbonitrile] registered an EC50 of 52.9 µM.
The figure for `O=C1CC(N2CCC(c3nc4ccccc4s3)CC2)C(=O)N1` (stereo not given) [MLS000063725] is over 300 µM; for `CS(=O)(=O)N1CCN(c2cccc(Cl)n2)CC1` [MLS000594331] it is over 300 µM.
The figure for `O=[N+]([O-])c1ccc(Cl)cc1NCCCN1CCOCC1` is over 300 µM; for `CC(C)Nc1nc(-c2cccnc2)nc(-c2ccccc2)c1C#N` [4-phenyl-6-(propan-2-ylamino)-2-pyridin-3-yl-pyrimidine-5-carbonitrile] it is over 300 µM.
With `O=C(CSc1ccc(F)cc1)Nc1ccc(N2CCOCC2)cc1` [2-(4-fluorophenyl)sulfanyl-N-(4-morpholin-4-ylphenyl)ethanamide] the figure was over 300 µM; with `Nc1nonc1-n1nnc(C(=O)NN=Cc2ccc(OCc3ccccc3)cc2)c1CN1CCCCC1` [MLS001075115], 8.87 µM; with `O=C(OCCCOC(=O)c1ccc(O)cc1)c1ccc(O)cc1` [4-hydroxybenzoic acid 3-[(4-hydroxyphenyl)-oxomethoxy]propyl ester], 1.84 µM.
Regarding `O=C(O)COc1ccc2occ(C(=O)c3ccccc3)c2c1`, the EC50 stood at 4.3 µM.
The figure for `CNC(=O)c1cc2cccc(OC)c2oc1=O` is over 300 µM.
Consider `COc1ccc(C(=O)c2coc3ccc(O)c(CN(C)C)c23)cc1` [MLS000115878], for which the EC50 is over 300 µM.
Regarding `Cc1c([CH+][N-]NC(=O)COc2ccccc2[N+](=O)[O-])c2ccccc2n1C` [N-[(1,2-dimethylindol-3-yl)methylideneamino]-2-(2-nitrophenoxy)acetamide], the EC50 is over 300 µM.
The compound `CN(C)/C=C/C(=O)c1cnc(-c2cccc(Cl)c2)s1` [MLS000706958] displayed an EC50 of over 300 µM.
The figure for `Cc1ccc2sc(N(CCN(C)C)C(=O)c3ccc(S(=O)(=O)N4CC(C)OC(C)C4)cc3)nc2c1C` (stereo not given) [N-[2-(dimethylamino)ethyl]-N-(4,5-dimethyl-1,3-benzothiazol-2-yl)-4-(2,6-dimethylmorpholin-4-yl)sulfonyl-benzamide;hydrochloride] is over 300 µM; for `CCCCn1nc(NC(=O)CCC)c2cc3cc(OC)ccc3nc21` [MLS001214871] it is over 300 µM; for `COc1ccc(OC)c(Nc2c3ccccc3nc3ccccc23)c1` [N-(2,5-dimethoxyphenyl)-9-acridinamine] it is over 300 µM.
For the compound `COCCn1c(SCC(=O)Nc2ccc(S(N)(=O)=O)cc2)nc2ccccc21`, the EC50 is over 300 µM.
The figure for `CCc1n[nH]c(SCC(=O)Nc2ccc(Br)cn2)n1` [N-(5-bromanylpyridin-2-yl)-2-[(5-ethyl-1H-1,2,4-triazol-3-yl)sulfanyl]ethanamide] is 17.5 µM; for `Cc1ccsc1CN=Nc1ncnc2nc[nH]c12` [N-[(3-methyl-2-thiophenyl)methylideneamino]-7H-purin-6-amine] it is 9 µM; for `CNc1nc(N)c([N+](=O)[O-])c(NCCO)n1` it is 67.1 µM.
The figure for `CCN(CC)Cc1c(C(=O)OC(C)C)nnn1-c1nonc1N` [propan-2-yl 1-(4-azanyl-1,2,5-oxadiazol-3-yl)-5-(diethylaminomethyl)-1,2,3-triazole-4-carboxylate] is over 300 µM; for `O=c1cc(-c2ccccc2Cl)oc2cc(O)cc(O)c12` [2-(2-chlorophenyl)-5,7-dihydroxychromen-4-one] it is 1.67 µM.
The figure for `CCCCc1cc(=O)oc2cc(C)cc(OCC(=O)O)c12` [2-(4-butyl-7-methyl-2-oxochromen-5-yl)oxyacetic acid] is over 300 µM; for `CCCCc1cc(=O)oc2c(CN(C)C)c(O)ccc12` [4-butyl-8-[(dimethylamino)methyl]-7-hydroxy-1-benzopyran-2-one] it is over 300 µM.
Regarding `O=C(CN(Cc1ccc(F)cc1)C(=O)CCC(=O)Nc1ccccn1)NCc1ccc(F)cc1` [N-(4-Fluoro-benzyl)-N-[(4-fluoro-benzylcarbamoyl)-methyl]-N'-pyridin-2-yl-succinamide], the midpoint of the response, the EC50, lay at 37.7 µM.
The figure for `Cc1nn(-c2ccccc2)c2c1cc1c(=O)n(C)c(=O)nc-1n2-c1ccccc1F` [MLS000769580] is 106 µM.
`CCOc1ccc2c(c1)-c1c(ssc1=S)C(C)(C)N2` [SMR000116364] came in with an EC50 of over 300 µM.
With `CCOC(=O)C=C(C)[N+]1=N[C-](c2ccc(OC)cc2)CC1c1cccc([N+](=O)[O-])c1` (stereo not given) [(Z)-3-[5-(4-methoxyphenyl)-3-(3-nitrophenyl)-3,4-dihydropyrazol-2-yl]-2-butenoic acid ethyl ester] the figure was over 300 µM; with `CCN1CCN(CCCNC(=O)c2ccc3c(c2)NC(=O)c2ccccc2S3)CC1` [N-[3-(4-ethylpiperazin-1-yl)propyl]-6-oxo-5H-benzo[b][1,4]benzothiazepine-3-carboxamide], over 300 µM; with `N#CCCN1CCCc2cc(/N=N/c3ccc(C(F)(F)F)cc3)ccc21`, over 300 µM.
In the case of `CS(=O)(=O)c1ccccc1-c1nnc(NC(=O)c2ccc3ncsc3c2)o1`, the EC50 was over 300 µM.
In turn, `COCCCNc1nc(N)c([N+](=O)[O-])c(NC2CCCCC2)n1` [MLS001165157] yielded an EC50 of 0.86 µM.
With `N#Cc1ccc(CSc2nnc(-c3ccncc3)o2)cc1` [MLS000687325], a half-maximal response (EC50) required 15.1 µM.
`CCOC(=O)C1C(C)=Nc2ncnn2C1c1c[nH]c2ccccc12` (stereo not given) [MLS000089006] yielded an EC50 of 4.64 µM.
Regarding `O=C(C[n+]1ccc(C=Cc2ccccc2)cc1)c1ccc2c(c1)OCCO2`, the EC50 was found to be 125 µM.
The compound `COC(=O)c1ccc(O)cc1` displayed an EC50 of over 300 µM.
On to `CCOC(=O)c1nnn(-c2nonc2N)c1CSc1ccc(C)cc1` [SMR000020597], for which a half-maximal response (EC50) required 160 µM.
Consider `COc1ccc(/C=C2/Sc3ccc(C(=O)NCCN4CCCCCC4)cc3NC2=O)cc1` [(2E)-N-[2-(azepan-1-yl)ethyl]-2-[(4-methoxyphenyl)methylidene]-3-oxo-4H-1,4-benzothiazine-6-carboxamide], for which the EC50 is over 300 µM.
In turn, `COc1cccc(/C=C2\Sc3ccc(C(=O)NCC4CCCO4)cc3N(C)C2=O)c1` (stereo not given) [SMR000622267] returned a 50% effective concentration (EC50) of over 300 µM.
In turn, `Cc1cccc(C(=O)NC2CC3CCCC(C2)N3Cc2ccccc2)c1` (stereo not given) [MLS001212730] yielded an EC50 of over 300 µM.
The figure for `CC(C)Nc1nc(N)c(C(=O)C23CC4CC(CC(C4)C2)C3)s1` [1-adamantyl-[4-azanyl-2-(propan-2-ylamino)-1,3-thiazol-5-yl]methanone] is 23.5 µM; for `CSc1nc(NCc2ccco2)c2c3c(sc2n1)CN(C)CC3` [MLS000082597] it is 30.2 µM; for `O=C(Nc1nccs1)C1CCCN1S(=O)(=O)c1cccc2cccnc12` (stereo not given) [SMR000096012] it is 30.2 µM.
With `Cc1cc(C(=O)OCCN2C(=O)c3ccccc3C2=O)c2ccccc2n1` [MLS000565821] the figure was over 300 µM; with `O=[N+]([O-])c1ccccc1Oc1ccc(Cl)c2cccnc12` [MLS000721853], over 300 µM.
Regarding `CC(C)=CCc1c(O)cc2c(c1O)C(=O)CC(c1ccccc1)O2` (stereo not given) [MLS000697639], the EC50 is over 300 µM.
The compound `CSc1nc(N)c2c3c(sc2n1)CN(C)CC3` [7-methyl-2-methylsulfanyl-6,8-dihydro-5H-pyrido[4,5]thieno[1,2-c]pyrimidin-4-amine] showed a half-maximal effective concentration (EC50) of 73.2 µM.
`Nc1nonc1-n1nnc(C(=O)NN=Cc2cccc(F)c2)c1CN1CCCC1` [MLS000948239]: the EC50 is over 300 µM.
The figure for `COc1ccc2oc3cc(C)[n+]([O-])c(-c4ccc(Cl)cc4)c3c2c1` [MLS000588178] is 12.7 µM.
With `CON=C(CNC(=O)c1ccc(Cl)cc1Cl)c1ccc(Cl)cc1` [SMR000179199] the figure was over 300 µM; with `Cc1cc(NC(=O)CSc2ccc3nnc(-c4cccs4)n3n2)no1`, over 300 µM.
